The values below come from ChEMBL document CHEMBL1131986, “Structure-activity relationships of biphenyl tetrazoles as metallo-beta-lactamase inhibitors” (Bioorg Med Chem Lett, 1999).

Molecules are shown by their SMILES.

The target of test [1] is Metallo-beta-lactamase type 2 (Bacteroides fragilis, UniProt P25910). Put plainly: Inhibition of metallo-beta-lactamase (MBL) from Bacteroides fragilis.
For the next test, the target named is T1, Dipeptidase 1 (Sus scrofa, UniProt P22412).
T1 sequence (P22412 whole entry): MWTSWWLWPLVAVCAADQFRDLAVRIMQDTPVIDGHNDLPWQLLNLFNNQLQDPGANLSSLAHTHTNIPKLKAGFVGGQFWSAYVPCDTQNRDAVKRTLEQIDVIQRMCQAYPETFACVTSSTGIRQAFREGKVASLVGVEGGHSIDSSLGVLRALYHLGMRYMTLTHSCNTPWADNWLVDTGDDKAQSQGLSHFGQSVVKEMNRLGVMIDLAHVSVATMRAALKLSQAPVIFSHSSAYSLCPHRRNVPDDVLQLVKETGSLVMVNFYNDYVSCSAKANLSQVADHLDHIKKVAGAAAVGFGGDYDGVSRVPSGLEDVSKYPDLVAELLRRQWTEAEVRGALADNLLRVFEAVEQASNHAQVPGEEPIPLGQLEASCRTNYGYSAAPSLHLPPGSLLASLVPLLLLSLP
Put plainly: In vitro apparent inhibition constant of porcine renal Dehydropeptidase-1. The following applies: read-out: Ki app.

For another test, the target named is Beta-lactamase (Pseudomonas aeruginosa, UniProt Q79MP6). The experiment in a line: Inhibition of metallo-beta-lactamase (MBL) from Pseudomonas aeruginosa mediated by the plasmid-borne IMP-1 enzyme.

In general, IC50 refers to the point on the concentration scale where inhibition reaches its midpoint. The low end stands for inhibition by little substance, the high end for a need for much substance.

Metallo-beta-lactamase type 2, sequence (P25910 whole entry): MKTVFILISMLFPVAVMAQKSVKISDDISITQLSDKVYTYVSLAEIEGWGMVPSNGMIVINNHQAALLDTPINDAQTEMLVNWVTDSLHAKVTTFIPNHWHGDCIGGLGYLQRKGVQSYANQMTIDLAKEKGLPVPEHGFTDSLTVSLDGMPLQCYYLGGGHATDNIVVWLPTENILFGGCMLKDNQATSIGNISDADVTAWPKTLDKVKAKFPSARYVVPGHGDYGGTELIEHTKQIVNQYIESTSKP
Beta-lactamase, sequence (Q79MP6 whole entry): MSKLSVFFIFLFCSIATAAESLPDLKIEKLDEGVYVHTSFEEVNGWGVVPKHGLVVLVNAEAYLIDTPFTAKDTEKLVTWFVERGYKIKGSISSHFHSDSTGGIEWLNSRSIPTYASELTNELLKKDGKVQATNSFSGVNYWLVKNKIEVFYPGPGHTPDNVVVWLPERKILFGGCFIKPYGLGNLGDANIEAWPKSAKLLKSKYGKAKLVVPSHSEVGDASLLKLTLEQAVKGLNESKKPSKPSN

As to `CCCCc1nn(-c2cc(Cl)ccc2Cl)c(C(=O)O)c1Cc1ccc(-c2ccccc2-c2nnn[nH]2)cc1`, the IC50 in test [1] is 50 µM; at Beta-lactamase, over 200 µM. Besides, at Dipeptidase 1, the Ki came to 380 µM.
Turning to `CCCCc1nn(-c2ccccc2[N+](=O)[O-])c(C(=O)OCC)c1Cc1ccc(-c2ccccc2-c2nnn[nH]2)cc1`, the half-maximal inhibitory concentration (IC50) in test [1] was 18 µM; at Beta-lactamase, over 200 µM.
As for `CCCCc1nn(-c2ccc(Cl)cc2Cl)c(C(=O)OCC)c1Cc1ccc(-c2ccccc2-c2nnn[nH]2)cc1`, the IC50 was found to be 100 µM in test [1] and 66 µM at Beta-lactamase. In addition, the Ki at Dipeptidase 1 turned out to be 480 µM.
Take `CCCCc1nn(-c2ccccc2C(F)(F)F)c(C(=O)OCC)c1Cc1ccc(-c2ccccc2-c2nnn[nH]2)cc1`: the IC50 was 22 µM in test [1] and over 200 µM on Beta-lactamase.
As to `CCCCc1nn(-c2ccccc2)c(C(=O)O)c1Cc1ccc(-c2ccccc2-c2nn[nH]n2)cc1`, the values for the half-inhibitory concentration (IC50) (in test [1]; at Beta-lactamase) were 200 µM and over 200 µM, respectively. For the same compound, the Ki on Dipeptidase 1 was 590 µM.
Turning to `CCCCc1nn(-c2c(Cl)cc(Cl)cc2Cl)c(C(=O)OCC)c1Cc1ccc(-c2ccccc2-c2nn[nH]n2)cc1`, the values for the IC50 (in test [1]; against Beta-lactamase) were 80 µM and over 200 µM, respectively. In addition, the Ki on Dipeptidase 1 was determined as 450 µM.
For `CCCCc1nn(-c2ccccc2)c(C(=O)OCC)c1Cc1ccc(-c2ccccc2-c2nnn[nH]2)cc1`, in that order: 100 µM, over 200 µM and 250 µM.
In the case of `CCCCc1nn(-c2cc(Cl)ccc2Cl)c(C(=O)OCC)c1Cc1ccc(-c2ccccc2-c2nn[nH]n2)cc1`, the half-maximal inhibitory concentration (IC50) in test [1] turned out to be 100 µM; against Beta-lactamase, 60 µM. Also, the Ki on Dipeptidase 1 came to 80 µM.
Consider `CCCCc1nn(-c2c(Cl)cccc2Cl)c(C(=O)O)c1Cc1ccc(-c2ccccc2-c2nnn[nH]2)cc1`, for which the values for the IC50 (in test [1]; at Beta-lactamase) were 100 µM and over 200 µM, respectively. Further, the Ki on Dipeptidase 1 came to 500 µM.
Regarding `CCCCc1nn(-c2cccc(Cl)c2)c(C(=O)O)c1Cc1ccc(-c2ccccc2-c2nn[nH]n2)cc1`, the results for the concentration for half-maximal inhibition (IC50) (in test [1]; at Beta-lactamase) were 190 µM and over 200 µM, respectively. The Ki at Dipeptidase 1 was found to be 425 µM.
Take `CCCCc1nn(-c2ccccc2-c2ccccc2)c(C(=O)OCC)c1Cc1ccc(-c2ccccc2-c2nn[nH]n2)cc1`: the IC50 in test [1] is over 200 µM; against Beta-lactamase, 150 µM.
With `CCCCc1nn(-c2cccc(Cl)c2Cl)c(C(=O)OCC)c1Cc1ccc(-c2ccccc2-c2nnn[nH]2)cc1`, the IC50 was determined as 100 µM in test [1] and 175 µM against Beta-lactamase. On Dipeptidase 1, the Ki worked out at 170 µM.
Consider `CCCCc1nn(-c2ccccc2C)c(C(=O)O)c1Cc1ccc(-c2ccccc2-c2nn[nH]n2)cc1`, for which the IC50 in test [1] is 80 µM; at Beta-lactamase, over 200 µM. For the same compound, the Ki on Dipeptidase 1 came to 470 µM.
With `CCCCc1nn(-c2c(Cl)cc(Cl)cc2Cl)c(C(=O)O)c1Cc1ccc(-c2ccccc2-c2nnn[nH]2)cc1`, the IC50 in test [1] is 33 µM; at Beta-lactamase it was over 200 µM. Moreover, the Ki on Dipeptidase 1 was determined as 800 µM.
On to `CCCCc1nn(-c2ccc(Cl)cc2)c(C(=O)OCC)c1Cc1ccc(-c2ccccc2-c2nn[nH]n2)cc1`, for which the IC50 amounted to 290 µM in test [1] and 70 µM on Beta-lactamase. Besides, on Dipeptidase 1, the Ki came out at 380 µM.
With `CCCCc1nn(-c2ccc(Cl)cc2Cl)c(C(=O)O)c1Cc1ccc(-c2ccccc2-c2nn[nH]n2)cc1`, the values for the IC50 (in test [1]; against Beta-lactamase) were 80 µM and over 200 µM, respectively. Also, at Dipeptidase 1, the Ki is 400 µM.
As for `CCCCc1nn(-c2ccccc2C(F)(F)F)c(C(=O)O)c1Cc1ccc(-c2ccccc2-c2nnn[nH]2)cc1`, the concentration for half-maximal inhibition (IC50) is 40 µM in test [1] and over 200 µM at Beta-lactamase. For the same compound, the Ki at Dipeptidase 1 is 380 µM.
In the case of `CCCCc1nn(-c2ccccc2Cl)c(C(=O)OCC)c1Cc1ccc(-c2ccccc2-c2nnn[nH]2)cc1`, the IC50 in test [1] stood at 170 µM; on Beta-lactamase, 200 µM. Further, the Ki on Dipeptidase 1 amounted to 250 µM.
Take `CCCCc1nn(-c2ccccc2Cl)c(C(=O)O)c1Cc1ccc(-c2ccccc2-c2nn[nH]n2)cc1`: the IC50 in test [1] is 30 µM; against Beta-lactamase it was over 200 µM. In addition, at Dipeptidase 1, the Ki came out at 350 µM.
Take `CCCCc1nn(-c2cccc(Cl)c2)c(C(=O)OCC)c1Cc1ccc(-c2ccccc2-c2nn[nH]n2)cc1`: the IC50 was found to be 170 µM in test [1] and 76 µM on Beta-lactamase. The Ki at Dipeptidase 1 turned out to be 450 µM.
Take `CCCCc1nn(-c2ccccc2[N+](=O)[O-])c(C(=O)O)c1Cc1ccc(-c2ccccc2-c2nnn[nH]2)cc1`: the figures for the IC50 (in test [1]; at Beta-lactamase) were 120 µM and over 200 µM, respectively. In addition, the Ki on Dipeptidase 1 came out at 640 µM.
Take `CCCCc1nn(-c2ccccc2C)c(C(=O)OCC)c1Cc1ccc(-c2ccccc2-c2nn[nH]n2)cc1`: the values for the IC50 (in test [1]; against Beta-lactamase) were 70 µM and over 200 µM, respectively.
As to `CCCCc1nn(-c2ccccc2-c2ccccc2)c(C(=O)O)c1Cc1ccc(-c2ccccc2-c2nnn[nH]2)cc1`, the IC50 in test [1] amounted to 180 µM; on Beta-lactamase, 65 µM. Further, on Dipeptidase 1, the Ki was 420 µM.
Consider `CCCCc1nn(-c2cccc(Cl)c2Cl)c(C(=O)O)c1Cc1ccc(-c2ccccc2-c2nnn[nH]2)cc1`, for which the values for the concentration for half-maximal inhibition (IC50) (in test [1]; against Beta-lactamase) were 37 µM and over 200 µM, respectively. Further, the Ki at Dipeptidase 1 is 310 µM.
Turning to `CCCCc1nn(-c2ccc(Cl)cc2)c(C(=O)O)c1Cc1ccc(-c2ccccc2-c2nn[nH]n2)cc1`, the figures for the 50% inhibitory concentration (IC50) (in test [1]; against Beta-lactamase) were 230 µM and over 200 µM, respectively. For the same compound, at Dipeptidase 1, the Ki was 430 µM.
